In patent US4914191A, “Anthracycline derivatives having cytostatic activity” (Behringwerke Aktiengesellschaft, priority 1987, dated 1990):
In brackets after ≈: the same amount, converted by molar mass. Where a name gives a salt, the structure may show the parent alone. Read-outs that look alike come from different tables or passages of the source.

Legend:
[1] = approximative toxicity, intraperitoneal (LD50); conditions: in vivo, ip
Description: *3xip,q3d: three intraperitoneal administrations with an interval of thre
1xip: one intraperitoneal administration

L1210 leukemia cells = test: cross-resistance in vitro, MTT assay on sensitive and adriamycin (doxorubicin)-resistant L1210 leukemia cells; assay type: cell-based, mouse; conditions: for Degree of cross-resistance to adriamycin / Degree of resistance of the cell: 3d incubation; for Degree of resistance of the cell: IC50 resistant subline relative to IC50 sensitive line
Procedure: L1210, A 549 or HT 29 in the exponential phase of growth are incubated in a cell density of 5×10^3 cells/ml in RPMI 1640 in a 96-well microtiter plate for 72 hours with various concentrations of the test substance at 37° C., 5% CO2 and 95% relative humidity. Control experiments contain merely growth medium in place of the test substance. Each test substance and the control are determined in quadruplicate. After incubation for 65 hours, 50 μl of MTT solution (2.5 mg/ml in phosphate-buffered saline) are added. In the presence of live cells, MTT is reduced to a dark-red insoluble formazan dyestuff. This reaction is complete after 7 hours (L1210 cells) or after 24 hours (A 549, HT 29 cells), and the supernatant medium is carefully removed by aspiration. The insoluble dyestuff is dissolved by addition of 100 μl of DMSO, and the extinction of the resulting solution at a wavelength of 492 nm is then measured for each well in a Flow 340 CC multiscan photometer.
The ratio of the extinctions of treated and untreated cells yields a dose-effect plot from which the concentration which just kills 50% of the cells (IC50) can be read off. The coefficient of variation for repeat tests is less than 15%.
The cross-resistance between the particular test compound and doxorubicin is determined using the MTT assay (for method, see above) on sensitive and resistant L1210 leukemia cells.
The resistant cell line was established by incubation of a sensitive subline with stepwise increasing concentrations of the reference compound.
The IC50 of the test compound on the resistant subline relative to the IC50 of the sensitive subline yields the degree of resistance both for the test compound (DR(T)) and for the reference compound (DR(R)) in accordance with the formula [formula]
In addition, the degree of cross-resistance (DCR) for the test compound is calculated in accordance with the formula [formula]
In the case where the loss of activity of the test compound on the resistant line related to the sensitive line is greater than that of the reference compound, a degree of cross-resistance of more than 100% is possible.

[2] = system: L1210 mouse leukemia cells; test: formation of colonies of L1210 leukemia cells in soft agar; assay type: cell-based; conditions: for IC50: Mus musculus
Procedure: The cytostatic activity of the compounds according to the invention was tested using L1210 mouse leukemia cells. This made use of the formation of colonies of L1210 leukemia cells in agar plates. This method is used to detect the effect of the test substances on the growth behavior of the cells over 1 hour or over several generations. With a cell cycle lasting 10-12 hours, this means that about 14 consecutive generations are observed in a test lasting 7 days. In this test, the substances having cytostatic activity according to the invention bring about a reduction in the number of colonies to be observed by comparison with an untreated control sample.
500 leukemia cells per plate were incubated with various concentrations of the test substance at 37° C. for 1 hour. These cells were then washed twice with McCoy5A medium and finally, after addition of 0.3% agar, poured into Petri dishes. Controls were incubated only with fresh medium. In some cases, in place of the incubation for one hour, various concentrations of test substances were mixed with the upper agar layer in order in this way to achieve continuous exposure of the cells throughout the incubation time. After the agar had solidified, the plates were incubated at 37° C. in an incubator for 7 days (5% by vol. CO2, 95% relative humidity). The number of colonies with a diameter of more than 60 μm which had formed was then counted. The results have been given as the number of colonies in treated agar plates as a percentage of the untreated control. The IC50 was determined, as a measure of the activity of the substance, from the dose-effect plot obtained in this way.

[3] = one intraperitoneal administration, read-out: Approximative toxicity LD50, 1xip
[4] = 168 h, continuous exposure, 7 days, L1210 colony formation, read-out: Long-term incubation IC50
[5] = 1 h incubation, then 7 days colony formation, L1210, read-out: 1 h Incubation IC50
[6] = three intraperitoneal administrations with an interval of three days between each, read-out: Approximative toxicity LD50, 3xip, q3d
[7] = L1210, 168 h, read-out: Long-term incubation IC50, continuous exposure, 7 days, L1210 colony formation
[8] = L1210, read-out: 1 h Incubation IC50, 1 h incubation, then 7 days colony formation, L1210
[9] = 1 h incubation, then 7 days colony formation, L1210
[10] = continuous exposure, 7 days, L1210 colony formation

For `CC[C@@]1(O)C[C@H](O[C@H]2C[C@H](N(C)C)[C@H](OC(=O)c3ccccc3)[C@H](C)O2)c2c(O)c3c(c(O)c2[C@H]1O[C@H]1C[C@H](N(C)C)[C@H](OC(=O)c2ccccc2)[C@H](C)O1)C(=O)c1cccc(O)c1C3=O` [Compound 1, 7,10-O-Bis-(4'-O-benzoyl-α-L-rhodosaminyl)-β-rhodomycinone], the LD50 [1, 3] was over 100 mg/kg, the “Degree of cross-resistance to adriamycin” value (L1210 leukemia cells) was 0% and the “Degree of resistance of the cell” value (L1210 leukemia cells) was 1.0.
For `CC[C@@]1(O)C[C@H](O[C@H]2C[C@H](N(C)C)[C@H](OC(C)=O)[C@H](C)O2)c2c(O)c3c(c(O)c2[C@H]1O[C@H]1C[C@H](N(C)C)[C@H](OC(C)=O)[C@H](C)O1)C(=O)c1cccc(O)c1C3=O` [Compound 9, 7,10-O-Bis-(4'-O-acetyl-α-L-rhodosaminyl)-β-rhodomycinone], the LD50 [1, 3] was 3.4 to 6.5 mg/kg, the “Degree of cross-resistance to adriamycin” value (L1210 leukemia cells) was 6.0% and the “Degree of resistance of the cell” value (L1210 leukemia cells) was 6.0. The IC50 [2, 4] was 0.026 µg/mL (≈ 0.0331 µM) and the IC50 [2, 5] was 0.06 µg/mL (≈ 0.0764 µM).
With `CC[C@@]1(O)C[C@H](O[C@H]2C[C@H](N(C)C)[C@H](OC(=O)c3ccccc3)[C@H](C)O2)c2c(O)c3c(c(O)c2[C@H]1O)C(=O)c1cccc(O)c1C3=O` [Compound 17, 7-O-(4'-O-benzoyl-α-L-rhodosaminyl)-β-rhodomycinone] the LD50 [1, 3] was 1 to 10 mg/kg, the IC50 [2, 4] was 0.12 µg/mL (≈ 0.185 µM) and the IC50 [2, 5] was 0.9 µg/mL (≈ 1.39 µM).
`CC[C@@]1(O)CCc2c(O)c3c(c(O)c2[C@H]1O[C@H]1C[C@H](N(C)C)[C@H](OC(=O)c2ccccc2)[C@H](C)O1)C(=O)c1cccc(O)c1C3=O` [Compound 22, 10-O-(4'-O-Benzoyl-α-L-rhodosaminyl)-γ-rhodomycinone] showed an LD50 [1, 3] of 1 to 10 mg/kg, an IC50 [2, 4] of 0.48 µg/mL (≈ 0.76 µM) and an IC50 [2, 5] of over 1 µg/mL.
For `CC[C@@]1(O)C[C@H](O[C@H]2C[C@H](N(C)C)[C@H](O)[C@H](C)O2)c2c(O)c3c(c(O)c2[C@H]1O[C@H]1C[C@H](N(C)C)[C@H](OC(=O)c2ccc(OC)cc2)[C@H](C)O1)C(=O)c1cccc(O)c1C3=O` [Compound 12b, 7-O-α-L-rhodosaminyl-10-O-[4"-O-(p-methoxybenzoyl)-α-L-rhodosaminyl]-β-rhodomycinone], the LD50 [1, 6] was 5.33 to 10.7 mg/kg, the “Degree of cross-resistance to adriamycin” value (L1210 leukemia cells) was 5.0% and the “Degree of resistance of the cell” value (L1210 leukemia cells) was 5.0. For the same molecule, the IC50 [2, 4] was 0.011 µg/mL (≈ 0.0132 µM) and the IC50 [2, 5] was 0.1 µg/mL (≈ 0.12 µM).
Molecule `CC[C@@]1(O)C[C@H](O[C@H]2C[C@H](N(C)C)[C@H](OC(=O)c3ccc(OC)cc3)[C@H](C)O2)c2c(O)c3c(c(O)c2[C@H]1O)C(=O)c1cccc(O)c1C3=O` [Compound 18, 7-O-(4'-O-p-Methoxybenzoyl-α-L-rhodosaminyl)-β-rhodomycinone] has an LD50 [1, 3] of 10 to 50 mg/kg, an IC50 [2, 4] of 0.075 µg/mL (≈ 0.111 µM) and an IC50 [2, 5] of 0.66 µg/mL (≈ 0.974 µM).
In the case of `CC[C@@]1(O)C[C@H](O[C@H]2C[C@H](N(C)C)[C@H](OC(=O)c3ccc([N+](=O)[O-])cc3)[C@H](C)O2)c2c(O)c3c(c(O)c2[C@H]1O[C@H]1C[C@H](N(C)C)[C@H](OC(=O)c2ccc([N+](=O)[O-])cc2)[C@H](C)O1)C(=O)c1cccc(O)c1C3=O` [Compound 7, 7,10-O-Bis-(4'-O-p-nitrobenzoyl-α-L-rhodosaminyl)-β-rhodomycinone], the IC50 [2, 7] is reported as 2.1 µg/mL (≈ 2.1 µM) and the IC50 [2, 8] is reported as over 10 µg/mL.
With `CC[C@@]1(O)C[C@H](O[C@H]2C[C@H](N(C)C)[C@H](OC(C)=O)[C@H](C)O2)c2c(O)c3c(c(O)c2[C@H]1O)C(=O)c1cccc(O)c1C3=O` [Compound 21, 7-O-(4'-O-Acetyl-α-L-rhodosaminyl)-β-rhodomycinone] the LD50 [1, 3] was 1 to 10 mg/kg, the “Degree of cross-resistance to adriamycin” value (L1210 leukemia cells) was 2.4% and the “Degree of resistance of the cell” value (L1210 leukemia cells) was 2.2. For the same molecule, the IC50 [2, 4] was 0.08 µg/mL (≈ 0.137 µM) and the IC50 [2, 5] was 0.7 µg/mL (≈ 1.2 µM).
For `CC[C@@]1(O)C[C@H](O[C@H]2C[C@H](N(C)C)[C@H](OC(=O)c3ccc(OC)cc3)[C@H](C)O2)c2c(O)c3c(c(O)c2[C@H]1O[C@H]1C[C@H](N(C)C)[C@H](OC(=O)c2ccc(OC)cc2)[C@H](C)O1)C(=O)c1cccc(O)c1C3=O` [Compound 3, 7,10-O-Bis-(4'-O-p-methoxybenzoyl-α-L-rhodosaminyl)-β-rhodomycinone], the LD50 [1, 3] was over 100 mg/kg, the IC50 [2, 7] was 0.115 µg/mL (≈ 0.119 µM) and the IC50 [2, 8] was over 1 µg/mL.
With `CC[C@@]1(O)C[C@H](O[C@H]2C[C@H](N(C)C)[C@H](OC(=O)c3ccc(C#N)cc3)[C@H](C)O2)c2c(O)c3c(c(O)c2[C@H]1O[C@H]1C[C@H](N(C)C)[C@H](OC(=O)c2ccc(C#N)cc2)[C@H](C)O1)C(=O)c1cccc(O)c1C3=O` [Compound 6, HCl adduct of compound 5] the “1 h Incubation IC50” value [2, 9] was over 1 µg/mL and the “Long-term incubation IC50” value [2, 10] was 0.14 µg/mL.
Molecule `CC[C@@]1(O)C[C@H](O[C@H]2C[C@H](N(C)C)[C@H](OC(=O)c3ccc([N+](=O)[O-])cc3)[C@H](C)O2)c2c(O)c3c(c(O)c2[C@H]1O)C(=O)c1cccc(O)c1C3=O` [Compound 19, 7-O-(4'-O-p-Nitrobenzoyl-α-L-rhodosaminyl)-β-rhodomycinone] has an LD50 [1, 3] of over 50 mg/kg, an IC50 [2, 7] of 0.03 µg/mL (≈ 0.0433 µM) and an IC50 [2, 8] of 0.55 µg/mL (≈ 0.794 µM).
With `CC[C@@]1(O)C[C@H](O[C@H]2C[C@H](N(C)C)[C@H](OC(=O)c3ccc(OC)cc3)[C@H](C)O2)c2c(O)c3c(c(O)c2[C@H]1O[C@H]1C[C@H](N(C)C)[C@H](OC(=O)c2ccc(OC)cc2)[C@H](C)O1)C(=O)c1cccc(O)c1C3=O` [Compound 4, HCl adduct of compound 3] the “1 h Incubation IC50” value [2, 9] was over 1 µg/mL and the “Long-term incubation IC50” value [2, 10] was 0.09 µg/mL.
With `CC[C@@]1(O)C[C@H](O[C@H]2C[C@H](N(C)C)[C@H](OC(=O)c3ccc(Br)cc3)[C@H](C)O2)c2c(O)c3c(c(O)c2[C@H]1O[C@H]1C[C@H](N(C)C)[C@H](OC(=O)c2ccc(Br)cc2)[C@H](C)O1)C(=O)c1cccc(O)c1C3=O` [Compound 8, 7,10-O-Bis-(4'-O-p-bromobenzoyl-α-L-rhodosaminyl)-β-rhodomycinone] the IC50 [2, 7] was 0.3 µg/mL (≈ 0.281 µM) and the IC50 [2, 8] was over 10 µg/mL.
With `CC[C@@]1(O)C[C@H](O[C@H]2C[C@H](N(C)C)[C@H](OC(=O)c3ccccc3)[C@H](C)O2)c2c(O)c3c(c(O)c2[C@H]1O[C@H]1C[C@H](N(C)C)[C@H](OC(=O)c2ccccc2)[C@H](C)O1)C(=O)c1cccc(O)c1C3=O` [Compound 2, HCl adduct of compound 1] the LD50 [1, 6] was over 85 mg/kg, the IC50 [2, 4] was 0.095 µg/mL and the IC50 [2, 5] was over 1 µg/mL.
For `COc1cccc2c1C(=O)c1c(O)c3c(c(O)c1C2=O)C[C@@](O)(C(=O)CO)C[C@@H]3O[C@H]1C[C@H](N)[C@H](O)[C@H](C)O1` [Adriamycin, reference compound], the “Degree of cross-resistance to adriamycin” value (L1210 leukemia cells) was 100.0%, the “Degree of resistance of the cell” value (L1210 leukemia cells) was 60-80 and the “resistance of the resistant cell line for doxorubicin” value (L1210 leukemia cells; resistant L1210 line, 4320 min) was 60-80 fold. It also gave an IC50 [2, 7] of 0.02 µg/mL (≈ 0.0368 µM) and an IC50 [2, 8] of 0.04 µg/mL (≈ 0.0736 µM).
Molecule `CCC(=O)O[C@@H]1[C@H](C)O[C@@H](O[C@H]2C[C@](O)(CC)[C@H](O[C@H]3C[C@H](N(C)C)[C@H](OC(=O)CC)[C@H](C)O3)c3c(O)c4c(c(O)c32)C(=O)c2c(O)cccc2C4=O)C[C@@H]1N(C)C` [Compound 10, 7,10-O-Bis-(4'-O-propionyl-α-L-rhodosaminyl)-β-rhodomycinone] has an IC50 [2, 4] of 0.12 µg/mL (≈ 0.148 µM) and an IC50 [2, 5] of 0.25 µg/mL (≈ 0.308 µM).
With `CC[C@@]1(O)C[C@H](O[C@H]2C[C@H](N(C)C)[C@H](OC(=O)c3ccc(C#N)cc3)[C@H](C)O2)c2c(O)c3c(c(O)c2[C@H]1O[C@H]1C[C@H](N(C)C)[C@H](OC(=O)c2ccc(C#N)cc2)[C@H](C)O1)C(=O)c1cccc(O)c1C3=O` [Compound 5, 7,10-O-Bis-(4'-O-p-cyanobenzoyl-α-L-rhodosaminyl)-β-rhodomycinon] the IC50 [2, 7] was 0.105 µg/mL (≈ 0.109 µM) and the IC50 [2, 8] was over 1 µg/mL.
